“Also recorded” adds a separate entry of the source.
Experiments:
[1] = tested on: IMR-5 cells; test: Specific apoptosis induction by betulinic acid derivatives; assay type: cell-based; conditions: FIG. 17B
Method: (§1) Quantification of DNA fragmentation was performed by FACS analysis of propidium iodide stained nuclei as described in Nicoletti et al, 1991, J. Immunol. Methods. 139: 271-279. Cells were analyzed for DNA content by flow. cytometry (FACScan, Becton Dickinson, Heidelberg, Germany) using CELLQuest software. Early apoptotic changes were identified by staining with biotinylated annexin V (Bender Med Systems, Vienna, Austria) following the manufacturer's instructions. Annexin V binds to exposed phosphatidylserine on the surface of apoptotic cells. Koopman et al, 1994, Blood. 84:1415-1420. Cells were analyzed by flow cytometry (FAC-Scan. Becton Dickinson) using CELLQuest software.
(§2) More specifically, betulinic acid, 28-acetyl-3-β-D-glucosyl betulin (“B10”), 3-β-28-hydroxylup-20(29)-en-3-yl-β-D-glucopyranoside (“B11”), 3-β-3-hydroxylup-20(29)-en-28-yl-β-D-glucopyranoside (“B12”), and 3-(β-D-glucopyranosyloxy)lup-20(29)-en-28-oic acid (“B13”) have been tested for specific apoptosis induction using the assays shown in Example 2. See, supra. […] (FIG. 17B).

[2] = tested on: Kelly cells; test: as above; assay type: cell-based; conditions: FIG. 17C
Method: as §1, §2

[3] = tested on: melanoma cell line (MEL-2); conditions: previously reported; cited from earlier work
[4] = tested on: caspase-3, caspase-8 and PARP in cytosolic extracts from SHEP cells; test: Cleavage of caspases in cytosolic extracts by cytochrome c or AIF; assay type: biochemical, human; conditions: FIG. 11A
Method: For determination of nuclear fragmentation, nuclei (10^3/μl) were incubated with mitochondria (1 μg/μl) in buffer D (10 mM HEPES, pH 7.4, 50 mM NaCl, 2 mM MgCl2, 5 mM EGTA, 1 mM DDT, 2 mM ATP, 10 mM phosphocreatine, 50 μg/ml creatine kinase, 10 μM cytochalasin B) for 2 h at 37° C. Nuclei were stained with propidium iodide ([…]) and analyzed by flow cytometry. For determination of caspase activation, cytosolic extracts (2 μg/μl) were incubated with mitochondria (1 μg/μl), cytochrome c (0.1-100 μM) or AIF-containing mitochondrial supernatant (0.5 μg/μl) in buffer D for 2 h at 37° C. Partially purified AIF (cytochrome c-free) was prepared as previously described (0.5 mg/ml, Susin et al., 1997, J. Exp. Med. 186, 5-37; Susin et al., 1996, J. Exp. Med. 184, 1331-41). Proteins were separated by 15% SDS-PAGE and Western blot analysis was performed as described above. To confirm equal loading of mitochondrial protein, all Western blots were also developed with an antibody directed against a 60 kDa mitochondrial antigen (data not shown).
Cytosolic extracts from SHEP cells were incubated with 0.1-100 μM cytochrome c. Immunodetection of caspases-3, -8 and PARP was performed as described in FIG. 9A.
Cytosolic extracts from SHEP cells transfected with a neomycin resistance vector only (Nec) or bcl-2 were incubated with partially purified AIF. Immunodetection of caspases-3, -8 and PARP was performed as described for FIG. 9A.
For determination of nuclear fragmentation, nuclei (10^3/μl) were incubated with mitochondria (1 μg/μl) in buffer D (10 mM HEPES, pH 7.4, 50 mM NaCl, 2 mM MgCl2, 5 mM EGTA, 1 mM DDT, 2 mM ATP, 10 mM phosphocreatine, 50 μg/ml creatine kinase, 10 μM cytochalasin B) for 2 h at 37° C. Nuclei were stained with propidium iodide ([…]) and analyzed by flow cytometry (Susin et al., 1997 Exp. Cell Res. 236:397-403). For determination of caspase activation, cytosolic extracts (2 μg/μl) were incubated with mitochondria (1 μg/μl), cytochrome c (10 μM) or AIF-containing mitochondrial supernatant (0.5 μg/μl) in buffer D for 2 h at 37° C. […]

[5] = 0.1-100 μM (Ex. 3) or 10 μM (Ex. 4) cytochrome c, partially purified AIF or AIF-containing supernatant, 11B, 16B

C=C(C)C1CCC2(COC3OC(CO)C(O)C(O)C3O)CCC3(C)C(CCC4C5(C)CCC(O)C(C)(C)C5CCC43C)C12 [B12, 3-β-3-hydroxylup-20(29)-en-28-yl-β-D-glucopyranoside]
apoptotic activity compared to betulinic acid [1]: enhanced apoptotic activity | apoptotic activity compared to betulinic acid [2]: at least as high as betulinic acid

C=C(C)[C@@H]1CC[C@]2(C(=O)O)CC[C@]3(C)[C@H](CC[C@@H]4[C@@]5(C)CC[C@H](O)C(C)(C)[C@@H]5CC[C@]43C)[C@@H]12 [betulinic acid, 3β-3-hydroxylup-20(29)-en-28-oic acid]
cytotoxicity [3]: exert cytotoxicity

C=C(C)[C@@H]1CC[C@]2(CO)CC[C@]3(C)[C@H](CC[C@@H]4[C@@]5(C)CC[C@H](O[C@@H]6O[C@H](CO)[C@@H](O)[C@H](O)[C@H]6O)C(C)(C)[C@@H]5CC[C@]43C)[C@@H]12 [B11, 3-β-28-hydroxylup-20(29)-en-3-yl-β-D-glucopyranoside]
apoptotic activity compared to betulinic acid [1]: about the same activity as betulinic acid | apoptotic activity compared to betulinic acid [2]: at least as high as betulinic acid

C=C(C)C1CCC2(C(=O)O)CCC3(C)C(CCC4C5(C)CCC(OC6OC(CO)C(O)C(O)C6O)C(C)(C)C5CCC43C)C12 [B13, 3-(β-D-glucopyranosyloxy)lup-20(29)-en-28-oic acid]
apoptotic activity compared to betulinic acid [1]: enhanced apoptotic activity | apoptotic activity compared to betulinic acid [2]: at least as high as betulinic acid

cytochrome c
cleavage of caspase-3 in cytosolic extracts [4, 5]: triggered the proteolytic processing of caspase-3 to its active subunits; also recorded: resulted in the processing of caspase-3 and PARP | cleavage of caspase-8 in cytosolic extracts [4, 5]: did not induce caspase-8 cleavage; also recorded: did not induce caspase-8 activation | cleavage of PARP in cytosolic extracts ([4]; 0.1-100 μM cytochrome c): caused caspase-mediated cleavage of PARP

C=C(C)C1CCC2(COC(C)=O)CCC3(C)C(CCC4C5(C)CCC(OC6OC(CO)C(O)C(O)C6O)C(C)(C)C5CCC43C)C12 [B10, 3β-28-(acetyloxy)lup-20(29)-en-3-yl-β-D-glucopyranoside]
apoptotic activity compared to betulinic acid [1]: enhanced apoptotic activity | apoptotic activity compared to betulinic acid [2]: at least as high as betulinic acid

Reference: patent publication US6369109B1, “Betulinic acid and derivatives thereof useful for the treatment of neuroectodermal tumor” (Deutsches Krebsforschungszentrum Stiftung des Offentlichen …, priority 1998, dated 2002)
